In patent publication US20260014133A1, “SUBSTITUTED 3-(l-OXOISOINDOLIN-2-YL)PIPERIDINE-2,6-DIONE/2-(2,6-DIOXOPIPERIDIN-3-YL)ISOINDOLINE-l,3-DIONE ANALOGS AS MODULATORS OF CEREBLON PROTEIN” (St. Jude's Chidren's Research Hospital, Inc., priority 2022, published 2026):

The molecules below were run against 6×His-CRBN-DDB1 protein (Homo sapiens (Human), UniProt Q96SW2) (assay: CRBN Fluorescence Polarization Assay). Settings: competitive fluorescence polarization; Cy5-O-Len probe 30 nM, 6×His-CRBN-DDB1 200 nM; 1 hour at room temperature; mean of three independent determinations; read-out: CRBN FP (IC50).
Assay type: binding
Protocol: In this competitive fluorescent polarization assay Cy5 conjugated lenalidomide analog (Cy5-O-Len)^13 was used as a fluorescent probe. 6×His-CRBN-DDB1 protein (200 nM) and Cy5-O-Len probe (30 nM) were combined in 20 mM HEPES pH 7, 150 mM NaCl, 0.005% Tween-20 assay buffer. 20 μL of this assay cocktail was dispensed into wells of Corning 3821 black 384-well plates. Compounds were transferred to the assay plate from a dose-response plate using a Pintool on a Biomek FXP Laboratory Automation Workstation (Beckman Coulter). The plates were incubated in the dark for 1 hour at room temperature and then read on an Envision plate reader (PerkinElmer, Massachusetts, USA). IC50 values were determined using a proprietary software RISE (Robust Investigation of Screening Experiments), developed in house on the Pipeline Pilot platform (Biovia, v. 17.2.0). Data represent the mean of three independent determinations.
Cereblon binding activity was determined as described herein above, and the results are provided below in Table 2 for representative disclosed compounds. Compound number (“Cmpd No.”) refers to the compound number (and associated compound information such as structure, name, etc.) as provided in Table 1. In Table 2 below: cereblon binding IC50 values are categorized as follows: “A” represents IC50 value<1 μM, “B” represents IC50 value between 1 and 10 μM, and “C” represents IC50 value>10 μM.

6×His-CRBN-DDB1 protein, sequence (Q96SW2 whole entry): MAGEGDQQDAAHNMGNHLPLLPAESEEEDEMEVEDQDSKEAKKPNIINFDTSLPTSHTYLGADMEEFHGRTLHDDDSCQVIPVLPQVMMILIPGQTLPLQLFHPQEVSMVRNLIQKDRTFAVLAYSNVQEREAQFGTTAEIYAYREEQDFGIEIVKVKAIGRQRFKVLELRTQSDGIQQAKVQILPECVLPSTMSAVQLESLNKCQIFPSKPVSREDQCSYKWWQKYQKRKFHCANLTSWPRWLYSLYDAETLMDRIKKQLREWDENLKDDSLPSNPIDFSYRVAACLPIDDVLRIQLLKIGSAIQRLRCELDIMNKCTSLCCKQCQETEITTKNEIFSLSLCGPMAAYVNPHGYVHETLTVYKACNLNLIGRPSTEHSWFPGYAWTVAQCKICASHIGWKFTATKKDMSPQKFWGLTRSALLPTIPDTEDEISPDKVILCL
6×His-CRBN-DDB1 protein, sequence (Q16531 whole entry partner): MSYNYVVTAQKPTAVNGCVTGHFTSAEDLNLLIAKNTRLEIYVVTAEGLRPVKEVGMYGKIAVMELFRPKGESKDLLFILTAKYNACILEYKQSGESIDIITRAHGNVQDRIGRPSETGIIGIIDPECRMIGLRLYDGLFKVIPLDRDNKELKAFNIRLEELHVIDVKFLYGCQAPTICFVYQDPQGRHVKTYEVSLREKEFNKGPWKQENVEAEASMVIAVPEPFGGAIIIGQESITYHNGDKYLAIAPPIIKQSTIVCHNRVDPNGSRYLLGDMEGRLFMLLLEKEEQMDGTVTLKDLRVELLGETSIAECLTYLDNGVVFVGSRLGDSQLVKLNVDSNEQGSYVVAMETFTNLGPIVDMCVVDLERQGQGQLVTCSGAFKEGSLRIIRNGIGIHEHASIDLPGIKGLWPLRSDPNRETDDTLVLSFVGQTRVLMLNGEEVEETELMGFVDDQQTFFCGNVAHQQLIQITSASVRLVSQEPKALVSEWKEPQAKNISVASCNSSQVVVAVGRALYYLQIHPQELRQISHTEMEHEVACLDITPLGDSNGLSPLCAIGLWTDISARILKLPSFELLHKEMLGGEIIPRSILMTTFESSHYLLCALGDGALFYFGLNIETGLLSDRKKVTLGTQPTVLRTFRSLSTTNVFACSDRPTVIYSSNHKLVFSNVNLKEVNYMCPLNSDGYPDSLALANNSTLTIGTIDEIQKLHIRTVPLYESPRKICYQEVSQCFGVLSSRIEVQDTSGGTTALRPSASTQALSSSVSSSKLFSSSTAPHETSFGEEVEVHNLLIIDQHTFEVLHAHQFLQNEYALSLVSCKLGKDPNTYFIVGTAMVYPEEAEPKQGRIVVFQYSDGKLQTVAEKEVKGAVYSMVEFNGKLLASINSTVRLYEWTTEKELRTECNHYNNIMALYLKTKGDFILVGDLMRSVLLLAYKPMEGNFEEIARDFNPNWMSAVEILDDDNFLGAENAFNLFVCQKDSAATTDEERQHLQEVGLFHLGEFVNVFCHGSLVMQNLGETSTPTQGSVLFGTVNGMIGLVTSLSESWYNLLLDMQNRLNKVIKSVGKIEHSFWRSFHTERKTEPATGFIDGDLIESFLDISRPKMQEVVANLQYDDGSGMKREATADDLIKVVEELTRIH

First: Cc1ccc2c(Nc3ccc4c(c3)CN(C3CCC(=O)NC3=O)C4=O)noc2c1 (stereo not shown) [Compound 19, 3-(5-((6-methylbenzo[d]isoxazol-3-yl)amino)-1-oxoisoindolin-2-yl)piperidine-2,6-dione]
Second: Cc1cccc(C(=O)Nc2ccc3c(c2)CN(C2CCC(=O)NC2=O)C3=O)c1 (stereo not shown) [Compound 3, N-(2-(2,6-dioxopiperidin-3-yl)-1-oxoisoindolin-5-yl)-3-methylbenzamide]
The IC50 of the first is lower: less than 1 µM for the first, 1 to 10 µM for the second.

`O=C1CCC(N2Cc3cc(NC(=O)c4ccc(C(F)(F)F)cc4)ccc3C2=O)C(=O)N1` (stereo not shown) [Compound 15, N-(2-(2,6-dioxopiperidin-3-yl)-1-oxoisoindolin-5-yl)-4-(trifluoromethyl)benzamide] and `Cc1ccc(C(=O)Nc2ccc3c(c2)CN(C2CCC(=O)NC2=O)C3=O)cc1` (stereo not shown) [Compound 2, N-(2-(2,6-dioxopiperidin-3-yl)-1-oxoisoindolin-5-yl)-4-methylbenzamide] cannot be ordered by IC50: less than 1 µM for the first, less than 1 µM for the second.

Compared with `O=C1CCC(N2Cc3cc(NC(=O)Cc4ccccc4Br)ccc3C2=O)C(=O)N1` (stereo not shown) [Compound 25, 2-(2-bromophenyl)-N-(2-(2,6-dioxopiperidin-3-yl)-1-oxoisoindolin-5-yl)acetamide], `Cc1ccccc1C(=O)Nc1ccc2c(c1)CN(C1CCC(=O)NC1=O)C2=O` (stereo not shown) [Compound 33, N-(2-(2,6-dioxopiperidin-3-yl)-1-oxoisoindolin-5-yl)-2-methylbenzamide] is higher in IC50: less than 1 µM for the first, 1 to 10 µM for the second.

First: CN(C)c1cccc(C(=O)Nc2ccc3c(c2)CN(C2CCC(=O)NC2=O)C3=O)c1 (stereo not shown) [Compound 60, 3-(dimethylamino)-N-(2-(2,6-dioxopiperidin-3-yl)-1-oxoisoindolin-5-yl)benzamide]
Second: N#Cc1cccc(C(=O)Nc2ccc3c(c2)CN(C2CCC(=O)NC2=O)C3=O)c1 (stereo not shown) [Compound 9, 3-cyano-N-(2-(2,6-dioxopiperidin-3-yl)-1-oxoisoindolin-5-yl)benzamide]
The IC50 of the first is higher: 1 to 10 µM for the first, less than 1 µM for the second.

Compared with `O=C1CCC(N2Cc3cc(NC(=O)c4ccccc4)ccc3C2=O)C(=O)N1` (stereo not shown) [Compound 4, N-(2-(2,6-dioxopiperidin-3-yl)-1-oxoisoindolin-5-yl)benzamide], `O=C1CCC(N2Cc3cc(NC(=O)c4ccccc4F)ccc3C2=O)C(=O)N1` (stereo not shown) [Compound 37, N-(2-(2,6-dioxopiperidin-3-yl)-1-oxoisoindolin-5-yl)-2-fluorobenzamide] is higher in IC50: less than 1 µM for the first, 1 to 10 µM for the second.

`O=C1CCC(N2Cc3cc(NC(=O)c4ccc(CN5CCOCC5)cc4)ccc3C2=O)C(=O)N1` (stereo not shown) [Compound 32, N-(2-(2,6-dioxopiperidin-3-yl)-1-oxoisoindolin-5-yl)-4-(morpholinomethyl)benzamide] and `O=C1CCC(N2Cc3cc(NC(=O)c4ccc(Cl)cc4)ccc3C2=O)C(=O)N1` (stereo not shown) [Compound 14, 4-chloro-N-(2-(2,6-dioxopiperidin-3-yl)-1-oxoisoindolin-5-yl)benzamide] fall in the same range of IC50: 1 to 10 µM for the first, 1 to 10 µM for the second.

`O=C1CCC(N2Cc3cc(NC(=O)c4cccc(OC(F)(F)F)c4)ccc3C2=O)C(=O)N1` (stereo not shown) [Compound 44, N-(2-(2,6-dioxopiperidin-3-yl)-1-oxoisoindolin-5-yl)-3-(trifluoromethoxy)benzamide] and `O=C1CCC(N2Cc3cc(NC(=O)c4ccccc4OC(F)(F)F)ccc3C2=O)C(=O)N1` (stereo not shown) [Compound 45, N-(2-(2,6-dioxopiperidin-3-yl)-1-oxoisoindolin-5-yl)-2-(trifluoromethoxy)benzamide] fall in the same range of IC50: 1 to 10 µM for the first, 1 to 10 µM for the second.

First: NC1(c2ccc(C(=O)Nc3ccc4c(c3)CN(C3CCC(=O)NC3=O)C4=O)cc2)CCC1 (stereo not shown) [Compound 30, 4-(1-aminocyclobutyl)-N-(2-(2,6-dioxopiperidin-3-yl)-1-oxoisoindolin-5-yl)benzamide]
Second: COc1ccc(C(=O)Nc2ccc3c(c2)CN(C2CCC(=O)NC2=O)C3=O)cc1 (stereo not shown) [Compound 40, N-(2-(2,6-dioxopiperidin-3-yl)-1-oxoisoindolin-5-yl)-4-methoxybenzamide]
The IC50 of the first is higher: 1 to 10 µM for the first, less than 1 µM for the second. The second is the more potent here.

`CN(C(=O)c1ccccc1)c1ccc2c(c1)CN(C1CCC(=O)NC1=O)C2=O` (stereo not shown) [Compound 18, N-(2-(2,6-dioxopiperidin-3-yl)-1-oxoisoindolin-5-yl)-N-methylbenzamide] and `O=C1CCC(N2Cc3cc(NC(=O)c4ccncc4)ccc3C2=O)C(=O)N1` (stereo not shown) [Compound 7, N-(2-(2,6-dioxopiperidin-3-yl)-1-oxoisoindolin-5-yl)isonicotinamide] fall in the same range of IC50: 1 to 10 µM for the first, 1 to 10 µM for the second.

`N#Cc1ccc(C(=O)Nc2ccc3c(c2)CN(C2CCC(=O)NC2=O)C3=O)cc1` (stereo not shown) [Compound 52, 4-cyano-N-(2-(2,6-dioxopiperidin-3-yl)-1-oxoisoindolin-5-yl)benzamide] and `Cc1ccc(NC(=O)Nc2ccc3c(c2)CN(C2CCC(=O)NC2=O)C3=O)cc1` (stereo not shown) [Compound 17, 1-(2-(2,6-dioxopiperidin-3-yl)-1-oxoisoindolin-5-yl)-3-(p-tolyl)urea] fall in the same range of IC50: 1 to 10 µM for the first, 1 to 10 µM for the second.

`Cc1ccc(C(=O)Nc2ccc3c(c2)C(=O)N(C2CCC(=O)NC2=O)C3=O)cc1` (stereo not shown) [Compound 1, N-(2-(2,6-dioxopiperidin-3-yl)-1,3-dioxolsoindolin-5-yl)-4-methylbenzamide] and `Cc1cccc(C(=O)Nc2ccc3c(c2)CN(C2CCC(=O)NC2=O)C3=O)c1Cl` (stereo not shown) [Compound 57, 2-chloro-N-(2-(2,6-dioxopiperidin-3-yl)-1-oxoisoindolin-5-yl)-3-methylbenzamide] fall in the same range of IC50: 1 to 10 µM for the first, 1 to 10 µM for the second.

First: O=C1CCC(N2Cc3cc(NC(=O)c4ccccc4Oc4ccccc4)ccc3C2=O)C(=O)N1 (stereo not shown) [Compound 23, N-(2-(2,6-dioxopiperidin-3-yl)-1-oxoisoindolin-5-yl)-2-phenoxybenzamide]
Second: O=C1CCC(N2Cc3cc(NC(=O)c4ccccc4C4CC4)ccc3C2=O)C(=O)N1 (stereo not shown) [Compound 49, 2-cyclopropyl-N-(2-(2,6-dioxopiperidin-3-yl)-1-oxoisoindolin-5-yl)benzamide]
The IC50 of the first is lower: less than 1 µM for the first, 1 to 10 µM for the second. The first is the more potent here.

Work on `O=C1CCC(N2Cc3cc(NC(=O)Cc4ccc(O)cc4)ccc3C2=O)C(=O)N1` (stereo not shown) [Compound 24, N-(2-(2,6-dioxopiperidin-3-yl)-1-oxoisoindolin-5-yl)-2-(4-hydroxyphenyl)acetamide] yielded an IC50 of less than 1 µM.
